Key:
[1] = system: complement serum (guinea pig complement); test: Anticomplementary activity (inhibition of complement hemolysis of sensitized erythrocytes); format: biochemical; settings: concentration inhibiting hemolysis of sensitized erythrocytes by 50%, 37° C., OD541
Protocol: The anticomplementary activity of the test compound was measured according to the test method as described in Experimental Immunochemistry, edited by E. A. Kabat and M. M. Mayer, 2nd ed., Springfield, III: C. C. Thomas (1961) pages 133-240.
A mixture of 1 ml of a 5-fold diluted solution of a Veronal buffer solution containing 1.5×10^-4 M Ca^2+ and 5×10^-4 M Mg^2+ and isotonic gelatin, 1.5 ml of complement serum (guinea pig complement) diluted 400 times with a physiological saline solution and 0.05 ml of a solution of a test compound (in this case, a test compound was dissolved in a physiological saline solution) was incubated at 37° C. for 30 minutes. To the said mixture there was added 0.4 ml of sensitized erythrocytes suspension containing 5×10^8 cells/ml and said mixture was incubated at 37° C. further for 60 minutes. After the incubation, the mixture was centrifuged in 3,000 rpm at 4° C. for 10 minutes.
The results are expressed in Table 1 as the concentration of each drugs inhibiting the hemolysis activity by 50% (IC50).

[2] = system: blood clot from diluted fresh rabbit blood (urokinase, bovine thrombin); test: Fibrinolytic activity (modified diluted whole blood clot lysis time method); format: biochemical; settings: test compound 300 μg/ml; time for complete lysis of diluted rabbit blood clot with urokinase, 37° C.
Protocol: The enhancement of the fibrinolytic activity of the test compounds was measured according to the modified diluted whole blood clot lysis time method described in
G. R. Fearnley, G. V. Balmforth, E. Fearnley: Clin. Sci. 16, 645-650 (1957) I. S. Chohan et al: Thrombos. Diathes. Haemorrh. 33, 226 (1975) and I. M. Nilsson et al: Handbook of Experimental Pharmacology 46, 110.
Fresh rabbit blood was diluted 20 times with 1/15M phosphate buffer (pH 7.4). A mixture of 400 μl of the diluted blood solution and 50 μl of a test compound (300 μg/ml) was incubated at 37° C. for 30 minutes. To the mixture were added 50 μl of urokinase solution (100 IU/ml) and 50 μl of bovine thrombin (100 N.I.H. u/ml). The clot produced in tubes was incubated at 37° C. for various periods of time. At the end of each incubation interval (15 minutes interval), 2.5 ml of distilled water was added to lyse erythrocytes released from clotted blood and absorbance (OD541) of the supernatant separated by centrifugation (3,000 rpm for 10 minutes) from the reaction mixture was measured. The fibrinolytic activity of the test compound was determined by the time in minutes needed for the complete lysis of the blood clot.
In the absence of a test compound, it took more than 2 hours to lyse blood clot in the above condition. However, blood clot was lysed in the presence of test compounds after 15 minutes (symbol: ++) and 45 minutes (symbol: +) incubation, respectively. Samples which were incapable of lysing blood clot within 1 hour incubation were expressed as symbol (-).

Row | Compound | Anticomplementary activity (IC50) [1] [mg/L] | Fibrinolytic activity [2]
1 | CCCCCCCCCCCCCCCC(=O)OC(CCCCCCCCCCCCCCC)CC(=O)N[C@@H](CCC(=O)O)C(=O)N[C@@H](CCC(=O)O)C(=O)O (stereo partly drawn) [19 (2), N-[N-(3-hexadecanoyloxyoctadecanoyl)-L-glutamyl]-L-glutamic acid] | 5.28 | –
2 | CCCCCCCCCCCCCCCC(=O)OC(CCCCCCCCCCCCCCC)CC(=O)N[C@H](C(=O)N[C@@H](CCC(=O)O)C(=O)O)C(C)C (stereo partly drawn) [Example 3, N-[N-(3-hexadecanoyloxyoctadecanoyl)-L-valyl]-L-glutamic acid] | 1.89 | ++ (blood clot was lysed in the presence of test compounds after 15 minutes (symbol: ++))
3 | CCCCCCCCCCCCCCCC(=O)OC(CCCCCCCCCCCCCC)C(=O)N[C@H](C(=O)N[C@@H](CCC(=O)O)C(=O)O)C(C)C (stereo partly drawn) [Example 6, N-[N-(2-hexadecanoyloxyhexadecanoyl)-L-valyl]-L-glutamic acid] | 0.49 | + (45 minutes (symbol: +) incubation)
4 | CCCCCCCCC=CCCCCCCCC(=O)OC(CCCCCCCC=CCCCCCCCC)CC(=O)N[C@H](C(=O)N[C@@H](CCC(=O)O)C(=O)O)C(C)C (stereo partly drawn) [Example 7, N-[N-[3-(9-octadecenoyloxy)-11-eicosenoyl]-L-valyl]-L-glutamic acid] | 3.4 | + (45 minutes (symbol: +) incubation)
5 | CCCCCCCCCCCCCCCC(=O)OC(CCCCCCCCCCCCCCC)CC(=O)N[C@H](C(=O)N[C@@H](CCC(=O)O)C(=O)O)[C@@H](C)O (stereo partly drawn) [Example 8 (2), N-[N-(3-hexadecanoyloxyoctadecanoyl)-L-threonyl]-L-glutamic acid] | 0.67 | ++ (blood clot was lysed in the presence of test compounds after 15 minutes (symbol: ++))
6 | CCCCCCCCCCCCCCCC(=O)OC(CCCCCCCCCCCCCCC)CC(=O)NCCC(=O)N[C@H](C(=O)N[C@@H](CCC(=O)O)C(=O)O)[C@@H](C)O (stereo partly drawn) [Example 10, N-[N-[N-(3-hexadecanoyloxyoctadecanoyl)-β-alanyl]-L-threonyl]-L-glutamic acid] | 1.00 | + (45 minutes (symbol: +) incubation)
7 | CCCCCCCCCCCCCCCC(=O)OC(CCCCCCCCCCCCCCC)CC(=O)NCCCCC(=O)N[C@@H](CCC(=O)O)C(=O)O (stereo partly drawn) [Example 14, N-[N-(3-hexadecanoyloxyoctadecanoyl)-5-aminopentanoyl]-L-glutamic acid] | 0.52 | –
8 | CCCCCCCCCCCCCCCC(=O)OC(CCCCCCCCCCCCCCC)CC(=O)NCCC(=O)N[C@@H](CC(=O)O)C(=O)O (stereo partly drawn) [Example 18, N-[N-(3-hexadecanoyloxyoctadecanoyl)-β-alanyl]-L-aspartic acid] | 0.34 | –
9 | CCCCCCCCCCCCCCCC(=O)OC(CCCCCCCCCCCCCCC)CC(=O)N[C@@H](CCCCN)C(=O)N[C@@H](CCC(=O)O)C(=O)O (stereo partly drawn) [Example 21, N-[N-(3-hexadecanoyloxyoctadecanoyl)-L-lysyl]-L-glutamic acid] | – | + (45 minutes (symbol: +) incubation)
10 | Br.Br.CCCCCCCCCCCCCCCC(=O)OC(CCCCCCCCCCCCCCC)CC(=O)N[C@@H](CCCCN)C(=O)N[C@@H](CCCCN)C(=O)O (stereo partly drawn) [Example 36, N-[N-(3-hexadecanoyloxyoctadecanoyl)-L-lysyl]-L-lysine dihydrogen bromide] | 9.5 | –
11 | CCCCCCCCCCCCCCCC(=O)OC(CCCCCCCCCCCCCCC)CC(=O)N[C@H](C(=O)NCCS(=O)(=O)O)C(C)C (stereo partly drawn) [Example 37, N-[N-(3-hexadecanoyloxyoctadecanoyl)-L-valyl]taurine] | 0.13 | + (45 minutes (symbol: +) incubation)
12 | CCCCCCCCCCCCCCCC(=O)OC(CCCCCCCCCCCCCCC)CC(=O)N[C@@H](CCC(=O)O)C(=O)N[C@H](C(=O)O)[C@@H](C)O (stereo partly drawn) [Example 39, N-[N-(3-hexadecanoyloxyoctadecanoyl)-L-glutamyl]-L-threonine] | 1.67 | –
13 | CCCCCCCCCCCCCCCC(=O)OC(CCCCCCCCCCCCCCC)CC(=O)N[C@H](C(=O)N[C@H](C(=O)O)[C@@H](C)O)[C@@H](C)O (stereo partly drawn) [Example 42, N-[N-(3-hexadecanoyloxyoctadecanoyl)-L-threonyl]-L-threonine] | 0.06 | ++ (blood clot was lysed in the presence of test compounds after 15 minutes (symbol: ++))
14 | CCCCCCCCCCCCCCCC(=O)OC(CCCCCCCCCCCCCCC)CC(=O)N[C@H](C(=O)N[C@@H](CCC(=O)OC)C(=O)OC)[C@@H](C)O (stereo partly drawn) [Example 43, dimethyl N-[N-(3-hexadecanoyloxyoctadecanoyl)-L-threonyl]-L-glutamate] | 30 | –
